The text below walks through data of PMC6389909, “Isothermal Analysis of ThermoFluor Data can readily provide Quantitative Binding Affinities” (Scientific Reports, 2019).

The target of test [1] is T1, h-CA I (Homo sapiens, UniProt P00915). The test can be described thus: Esterase activity assay (4-nitrophenyl acetate), h-CA I. In kind it is biochemical. Details: purchased Sigma C4396. Particulars: h-CA I 2 µM; 57 °C; noncompetitive inhibition fit; read-out: Ki (µM), from enzyme assay.
Procedure: Carbonic anhydrase activity (h-CA I and b-CA II) was measured using a spectrophotometer (Molecular Devices, SpectraMax® i3x) as described elsewhere[73]. h-CA I was used at a final concentration of 2 µM and b-CA II was used at a final concentration of 0.5 µM in the buffer: 100 mM NaCl, 20 mM TRIS, pH 6.1, 1% DMSO. […] All reactions of h-CA I took place at 57 °C and reactions of b-CA II took place at 60 °C. […] Enzyme initial velocity was plotted with different substrate concentration using Prism6. Data were collected for each of the four inhibitors, and the change in initial velocities were analyzed with the “Enzyme-noncompetitive inhibition” equation in Prism6.
For test [2], the target named is T1, h-CA I. The test can be described thus: SYPRO Orange DSF, isothermal analysis, carbonic anhydrase h-CA I.
Procedure: All proteins (MBP, h-CA I and b-CA II) were used at a final concentration of 2 µM for this assay. SYPRO Orange (Invitrogen S6651) was used at a final concentration of 20X for MBP, and at 10X for the carbonic anhydrases. […] Carbonic anhydrase experiments were carried out in 100 mM NaCl, 20 mM TRIS, 1% DMSO, pH 6.1.
All DSF experiments were carried out with Eppendorf Realplex2 Mastercycler. Each sample was divided to three 50 µL replicates. Sample solutions were dispensed into 96-well optical reaction plate (Thermo Fisher Scientific 4306737) and the plate was sealed with optical PCR plate sheet (Thermo Fisher Scientific AB-1170). Fluorescence intensity was measured via the JOE emission filter (550 nm) and “PTS clear plate” was set as the background for the calibration. […] Melting curves were directly exported from the instrument, and then were analyzed with Prism 6 (GraphPad Software Inc.).
DSF data were analyzed in three steps. First, raw fluorescence data as a function of temperature were fit to a modified form of the thermodynamic equation, as follows:22 ΔG=ΔH(1−T/Tm)−ΔCp(Tm−T+Tln[T/Tm]) 23 KU=e^−ΔG/RT 24 Y(T)=[1/1+KU(mFT+bF)]+[KU/1+KU(mUT+bU)]
Here Equation 24 relates the observed fluorescence signal, Y, as a function of temperature (T). The two terms in this equation correspond to contributions from folded and unfolded protein, respectively. […]
In test [3] the target is MBP. Particulars: read-out: Kd reported in previous studies; cited from earlier work.

Usually Ki stands for a dissociation constant, usually derived from enzyme kinetics or from competition with a known ligand. One may read the EC50 as the concentration giving half of the maximal effect. Read a low EC50 as higher potency in that assay. As usually defined, the Kd is a measure of binding affinity in units of concentration.

T1 sequence (P00915 whole entry): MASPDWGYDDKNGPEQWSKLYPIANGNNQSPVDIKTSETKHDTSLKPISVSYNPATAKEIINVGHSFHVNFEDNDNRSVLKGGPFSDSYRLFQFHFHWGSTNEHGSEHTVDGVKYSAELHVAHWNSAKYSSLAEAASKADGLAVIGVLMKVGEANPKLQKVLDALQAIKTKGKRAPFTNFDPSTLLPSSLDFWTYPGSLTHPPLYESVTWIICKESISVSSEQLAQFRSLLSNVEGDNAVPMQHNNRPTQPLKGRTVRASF

On to `NS(=O)(=O)C(F)(F)F` [TFMSA, trifluoromethanesulfonamide], for which, in test [1], the Ki is below 1 µM. The compound further yielded an EC50 in test [2] of 1.4 µM. The same compound came in with a Kd in test [2] (Kd (µM), from DSF, h-CA I, 57 °C, 2 µM protein, no denaturant) below 0.5 µM.

Turning to `OC[C@H]1O[C@H](O[C@H]2[C@H](O)[C@@H](O)C(O)O[C@@H]2CO)[C@H](O)[C@@H](O)[C@@H]1O` (mixture of isomers) [maltose], the Kd in test [3] was 0.5 to 2 µM.
